The text below walks through data of ChEMBL document CHEMBL1156000, “Synthesis of 2alpha-substituted-14-epi-previtamin D3 and its genomic activity” (Bioorg Med Chem Lett, 2009).

The target in test [1] is T1, Vitamin D3 receptor (Gallus gallus) (UniProt O42392).
T1 sequence (whole entry): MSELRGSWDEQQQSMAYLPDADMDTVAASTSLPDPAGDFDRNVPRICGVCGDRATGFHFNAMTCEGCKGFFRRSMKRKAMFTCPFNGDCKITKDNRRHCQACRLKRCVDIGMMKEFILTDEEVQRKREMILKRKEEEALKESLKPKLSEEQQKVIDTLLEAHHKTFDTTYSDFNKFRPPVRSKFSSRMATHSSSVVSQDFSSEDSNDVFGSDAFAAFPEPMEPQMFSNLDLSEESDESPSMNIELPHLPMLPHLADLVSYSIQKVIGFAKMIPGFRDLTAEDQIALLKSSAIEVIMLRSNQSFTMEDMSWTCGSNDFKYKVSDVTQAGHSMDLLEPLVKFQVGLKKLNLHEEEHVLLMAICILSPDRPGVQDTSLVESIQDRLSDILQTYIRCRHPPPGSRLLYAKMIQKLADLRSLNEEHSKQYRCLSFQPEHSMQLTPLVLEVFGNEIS
The experiment in a line: Displacement of [26,27-methyl-3H]1alpha,25-dihydroxyvitamin D3 from chick intestinal VDR after 1 hr by liquid scintillation counting.

Test [2] concerns the target T2, Vitamin D3 receptor (Homo sapiens) (UniProt P11473).
T2 sequence (whole entry): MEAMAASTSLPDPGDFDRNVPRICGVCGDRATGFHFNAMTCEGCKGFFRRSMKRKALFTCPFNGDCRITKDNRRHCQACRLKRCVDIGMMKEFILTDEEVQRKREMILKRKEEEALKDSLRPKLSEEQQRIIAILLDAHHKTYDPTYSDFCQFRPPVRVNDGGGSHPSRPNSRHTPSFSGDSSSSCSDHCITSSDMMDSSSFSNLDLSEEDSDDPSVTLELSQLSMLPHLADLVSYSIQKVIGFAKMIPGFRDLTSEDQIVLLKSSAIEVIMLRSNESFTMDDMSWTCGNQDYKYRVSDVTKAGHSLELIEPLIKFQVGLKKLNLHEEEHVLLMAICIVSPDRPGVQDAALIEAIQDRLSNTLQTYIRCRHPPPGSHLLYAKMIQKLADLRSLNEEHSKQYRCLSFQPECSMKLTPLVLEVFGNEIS
The following applies: HOS.
Description: Agonist activity at human VDR expressed in human HOS cells co-transfected with RXR gene assessed as osteocalcin promoter gene transactivation after 24 hrs by luciferase assay

SMILES strings stand for the structures. Calls of active or inactive are those of the source. No cut-off for these calls is given here.

Regarding `CC1=C(/C=C\C2=CCC[C@@]3(C)[C@@H]2CC[C@@H]3[C@H](C)CCCC(C)(C)O)C[C@@H](O)[C@H](c2ccccc2)[C@@H]1O`, the “relative binding affinity (RBA)” value in test [1] was “Active”. Besides, the ED50 in test [2] turned out to be 0.88 nM.
For `CC1=C(/C=C\C2=CCC[C@@]3(C)[C@@H]2CC[C@@H]3[C@H](C)CCCC(C)(C)O)C[C@@H](O)[C@H](C)[C@@H]1O` the same measures were “Active” and 0.12 nM.
The matching figures for `CCCC[C@H]1[C@H](O)CC(/C=C\C2=CCC[C@@]3(C)[C@@H]2CC[C@@H]3[C@H](C)CCCC(C)(C)O)=C(C)[C@H]1O`: “Active” and 5.77 nM.
`CC1=C(/C=C\C2=CCC[C@@]3(C)[C@@H]2CC[C@@H]3[C@H](C)CCCC(C)(C)O)C[C@@H](O)[C@H](OCCCO)[C@@H]1O`: the “relative binding affinity (RBA)” value in test [1] is “Active”. The ED50 in test [2] was 0.95 nM.
Regarding `CC1=C(/C=C\C2=CCC[C@@]3(C)[C@@H]2CC[C@@H]3[C@H](C)CCCC(C)(C)O)C[C@@H](O)C[C@@H]1O`, the “relative binding affinity (RBA)” value in test [1] (tested as the 2H-labelled form) was “Active”. In addition, the ED50 in test [2] (tested as the 2H-labelled form) was found to be 0.46 nM.
Regarding `CC1=C(/C=C\C2=CCC[C@@]3(C)[C@@H]2CC[C@@H]3[C@H](C)CCCC(C)(C)O)C[C@@H](O)[C@H](CCCO)[C@@H]1O`, the “relative binding affinity (RBA)” value in test [1] is “Active”. Also, in test [2], the ED50 was found to be 0.69 nM.
As to `CC1=C(/C=C\C2=CCC[C@@]3(C)[C@@H]2CC[C@@H]3[C@H](C)CCCC(C)(C)O)C[C@@H](O)[C@H](Cc2ccccc2)[C@@H]1O`, in test [1], the “relative binding affinity (RBA)” value was “Active”. The compound also yielded an ED50 in test [2] of 30.2 nM.
